Targets include PKN2 (Homo sapiens, UniProt Q16513); EGFR(L858R,T790M) (Homo sapiens, UniProt P00533, L858R/T790M); PAK2 (Homo sapiens, UniProt Q13177); PHKG2 (Homo sapiens, UniProt P15735); ULK3 (Homo sapiens, UniProt Q6PHR2); OSR1 (Homo sapiens, UniProt O95747); BRK (Homo sapiens, UniProt Q13882); BMX (Homo sapiens, UniProt P51813); FLT3(D835H) (Homo sapiens, UniProt P36888, D835H); AXL (Homo sapiens, UniProt P30530); PRKG1 (Homo sapiens, UniProt Q13976); MEK1 (Homo sapiens, UniProt Q02750); PAK7 (Homo sapiens, UniProt Q9P286); MAP3K2 (Homo sapiens, UniProt Q9Y2U5); PFTK1 (Homo sapiens, UniProt O94921); NEK7 (Homo sapiens, UniProt Q8TDX7); PRKX (Homo sapiens, UniProt P51817); NEK1 (Homo sapiens, UniProt Q96PY6); ACVR1 (Homo sapiens, UniProt Q04771); RIPK4 (Homo sapiens, UniProt P57078).

What all share (settings): 1 µM; binder
The next experiment has as its target T1, FLT3 (Homo sapiens, UniProt P36888).
T1 sequence (P36888 1-993): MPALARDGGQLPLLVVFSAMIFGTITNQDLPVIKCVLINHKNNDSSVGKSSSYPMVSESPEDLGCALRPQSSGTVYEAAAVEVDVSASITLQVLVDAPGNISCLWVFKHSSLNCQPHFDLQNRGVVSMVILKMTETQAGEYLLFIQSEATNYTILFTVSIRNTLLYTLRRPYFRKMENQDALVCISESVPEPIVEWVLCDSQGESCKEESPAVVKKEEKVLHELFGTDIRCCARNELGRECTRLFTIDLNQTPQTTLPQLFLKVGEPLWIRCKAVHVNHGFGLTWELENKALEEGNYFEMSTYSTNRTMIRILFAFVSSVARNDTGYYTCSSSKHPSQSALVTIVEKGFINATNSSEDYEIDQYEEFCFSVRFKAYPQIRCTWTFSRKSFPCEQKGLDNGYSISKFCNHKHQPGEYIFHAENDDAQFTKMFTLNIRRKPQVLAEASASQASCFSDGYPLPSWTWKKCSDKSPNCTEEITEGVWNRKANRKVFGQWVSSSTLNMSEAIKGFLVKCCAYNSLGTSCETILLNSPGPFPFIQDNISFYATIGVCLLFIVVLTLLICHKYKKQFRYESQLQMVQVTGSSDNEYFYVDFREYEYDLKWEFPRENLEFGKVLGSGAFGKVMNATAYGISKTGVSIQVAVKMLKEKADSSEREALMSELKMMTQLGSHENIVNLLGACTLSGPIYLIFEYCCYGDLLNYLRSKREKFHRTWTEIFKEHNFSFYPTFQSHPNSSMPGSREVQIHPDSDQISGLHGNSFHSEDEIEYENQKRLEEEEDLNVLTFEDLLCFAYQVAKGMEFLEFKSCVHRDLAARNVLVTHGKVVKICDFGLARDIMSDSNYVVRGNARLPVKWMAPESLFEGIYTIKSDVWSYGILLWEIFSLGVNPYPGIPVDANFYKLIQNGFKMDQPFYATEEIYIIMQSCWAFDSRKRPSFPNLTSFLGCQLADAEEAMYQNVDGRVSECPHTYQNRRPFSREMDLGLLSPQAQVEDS

Structures are written as SMILES.

Chain of PKN2 (Q16513 whole entry): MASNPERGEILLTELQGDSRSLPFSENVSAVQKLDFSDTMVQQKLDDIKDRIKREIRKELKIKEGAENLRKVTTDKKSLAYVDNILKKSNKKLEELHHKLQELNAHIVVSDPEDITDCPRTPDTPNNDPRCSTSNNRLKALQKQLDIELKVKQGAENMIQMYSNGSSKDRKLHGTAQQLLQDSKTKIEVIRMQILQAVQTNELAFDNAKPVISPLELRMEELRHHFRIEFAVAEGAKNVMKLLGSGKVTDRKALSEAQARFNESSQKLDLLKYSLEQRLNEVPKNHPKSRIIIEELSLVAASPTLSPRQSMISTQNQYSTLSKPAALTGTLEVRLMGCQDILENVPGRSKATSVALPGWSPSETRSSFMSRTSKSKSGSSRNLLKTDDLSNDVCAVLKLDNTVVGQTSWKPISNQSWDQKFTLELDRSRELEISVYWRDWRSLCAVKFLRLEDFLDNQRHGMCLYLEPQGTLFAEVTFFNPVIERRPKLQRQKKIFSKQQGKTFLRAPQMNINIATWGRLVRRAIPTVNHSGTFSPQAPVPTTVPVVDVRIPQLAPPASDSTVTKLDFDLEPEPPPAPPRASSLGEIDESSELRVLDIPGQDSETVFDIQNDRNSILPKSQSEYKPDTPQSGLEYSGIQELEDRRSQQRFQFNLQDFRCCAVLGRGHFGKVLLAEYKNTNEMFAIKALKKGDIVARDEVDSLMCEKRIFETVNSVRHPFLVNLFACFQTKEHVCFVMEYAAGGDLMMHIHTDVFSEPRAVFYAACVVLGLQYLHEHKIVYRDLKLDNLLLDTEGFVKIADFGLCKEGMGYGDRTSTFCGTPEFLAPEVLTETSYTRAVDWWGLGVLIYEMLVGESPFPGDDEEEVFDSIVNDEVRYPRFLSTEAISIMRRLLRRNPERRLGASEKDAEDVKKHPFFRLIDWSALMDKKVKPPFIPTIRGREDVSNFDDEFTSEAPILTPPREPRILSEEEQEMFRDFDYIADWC
Chain of MAP3K2 (Q9Y2U5 whole entry): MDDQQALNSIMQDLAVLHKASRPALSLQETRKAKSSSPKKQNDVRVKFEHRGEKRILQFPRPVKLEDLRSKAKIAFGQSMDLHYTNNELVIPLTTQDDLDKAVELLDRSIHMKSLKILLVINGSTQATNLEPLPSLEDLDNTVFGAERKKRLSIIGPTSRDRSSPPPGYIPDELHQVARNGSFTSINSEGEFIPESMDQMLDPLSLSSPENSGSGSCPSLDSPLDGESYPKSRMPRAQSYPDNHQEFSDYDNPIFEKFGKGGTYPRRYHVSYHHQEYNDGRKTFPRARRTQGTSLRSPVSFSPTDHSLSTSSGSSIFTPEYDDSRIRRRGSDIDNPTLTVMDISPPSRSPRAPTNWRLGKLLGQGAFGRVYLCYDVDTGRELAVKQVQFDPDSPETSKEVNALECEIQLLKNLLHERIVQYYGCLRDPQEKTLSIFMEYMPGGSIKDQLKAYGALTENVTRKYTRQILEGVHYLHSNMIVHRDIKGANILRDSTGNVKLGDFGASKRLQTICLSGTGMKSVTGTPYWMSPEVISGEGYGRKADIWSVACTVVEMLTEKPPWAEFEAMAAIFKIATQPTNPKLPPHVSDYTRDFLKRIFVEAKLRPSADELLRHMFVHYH
Chain of PAK7 (Q9P286 whole entry): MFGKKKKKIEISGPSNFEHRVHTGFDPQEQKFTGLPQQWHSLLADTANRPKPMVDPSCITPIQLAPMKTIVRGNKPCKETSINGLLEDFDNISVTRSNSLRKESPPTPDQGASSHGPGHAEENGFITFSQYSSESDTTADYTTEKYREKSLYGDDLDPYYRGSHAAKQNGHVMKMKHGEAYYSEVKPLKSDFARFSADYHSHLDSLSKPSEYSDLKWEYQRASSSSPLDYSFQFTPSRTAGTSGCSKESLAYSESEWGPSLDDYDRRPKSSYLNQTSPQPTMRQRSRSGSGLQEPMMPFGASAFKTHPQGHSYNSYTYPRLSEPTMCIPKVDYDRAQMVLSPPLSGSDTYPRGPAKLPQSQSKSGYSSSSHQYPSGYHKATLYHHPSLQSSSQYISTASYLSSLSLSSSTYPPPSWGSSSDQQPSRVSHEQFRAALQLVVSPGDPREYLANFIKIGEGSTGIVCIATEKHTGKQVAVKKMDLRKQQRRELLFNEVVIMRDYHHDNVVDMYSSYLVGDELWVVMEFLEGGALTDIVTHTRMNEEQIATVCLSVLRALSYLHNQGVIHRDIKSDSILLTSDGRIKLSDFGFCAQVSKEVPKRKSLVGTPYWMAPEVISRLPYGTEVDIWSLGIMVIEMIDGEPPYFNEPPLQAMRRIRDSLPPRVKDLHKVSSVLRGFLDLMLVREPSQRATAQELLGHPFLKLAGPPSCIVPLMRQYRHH
Chain of BMX (P51813 whole entry): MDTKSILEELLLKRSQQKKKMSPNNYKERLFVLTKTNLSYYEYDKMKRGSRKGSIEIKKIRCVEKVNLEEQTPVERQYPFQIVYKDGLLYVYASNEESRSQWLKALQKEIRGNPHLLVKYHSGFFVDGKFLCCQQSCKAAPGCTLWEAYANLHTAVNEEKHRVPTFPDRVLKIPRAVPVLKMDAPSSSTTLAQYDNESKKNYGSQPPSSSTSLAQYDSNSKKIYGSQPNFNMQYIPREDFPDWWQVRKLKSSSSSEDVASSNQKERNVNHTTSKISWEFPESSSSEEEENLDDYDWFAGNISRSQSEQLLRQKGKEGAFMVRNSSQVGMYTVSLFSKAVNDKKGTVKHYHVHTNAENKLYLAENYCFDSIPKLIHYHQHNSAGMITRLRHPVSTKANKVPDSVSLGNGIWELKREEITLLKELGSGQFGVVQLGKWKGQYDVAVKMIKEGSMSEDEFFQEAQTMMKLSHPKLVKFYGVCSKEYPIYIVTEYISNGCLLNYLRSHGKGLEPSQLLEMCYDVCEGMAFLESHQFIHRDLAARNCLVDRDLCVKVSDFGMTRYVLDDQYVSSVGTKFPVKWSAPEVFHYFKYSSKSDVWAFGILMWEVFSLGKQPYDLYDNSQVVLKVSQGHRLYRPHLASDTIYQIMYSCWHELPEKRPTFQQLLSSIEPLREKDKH
Chain of PHKG2 (P15735 whole entry): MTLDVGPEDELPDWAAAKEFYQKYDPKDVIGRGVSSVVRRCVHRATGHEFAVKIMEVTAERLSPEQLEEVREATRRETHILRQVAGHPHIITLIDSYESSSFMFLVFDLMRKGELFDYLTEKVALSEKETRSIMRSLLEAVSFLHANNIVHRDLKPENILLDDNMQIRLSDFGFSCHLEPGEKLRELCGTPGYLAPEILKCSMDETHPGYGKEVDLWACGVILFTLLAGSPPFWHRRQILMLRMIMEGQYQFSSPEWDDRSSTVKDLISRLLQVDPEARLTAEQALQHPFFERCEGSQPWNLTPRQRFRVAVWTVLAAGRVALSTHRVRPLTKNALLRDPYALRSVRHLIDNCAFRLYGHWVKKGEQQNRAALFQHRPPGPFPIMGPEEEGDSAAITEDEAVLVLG
Chain of NEK7 (Q8TDX7 whole entry): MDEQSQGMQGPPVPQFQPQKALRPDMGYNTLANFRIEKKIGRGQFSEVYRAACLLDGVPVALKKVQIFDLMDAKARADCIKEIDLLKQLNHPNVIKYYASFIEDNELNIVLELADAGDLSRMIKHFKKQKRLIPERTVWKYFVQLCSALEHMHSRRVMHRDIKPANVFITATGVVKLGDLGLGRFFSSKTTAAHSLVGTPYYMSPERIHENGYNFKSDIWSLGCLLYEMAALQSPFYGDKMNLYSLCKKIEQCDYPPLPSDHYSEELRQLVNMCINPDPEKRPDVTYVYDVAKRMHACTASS
Chain of RIPK4 (P57078 whole entry): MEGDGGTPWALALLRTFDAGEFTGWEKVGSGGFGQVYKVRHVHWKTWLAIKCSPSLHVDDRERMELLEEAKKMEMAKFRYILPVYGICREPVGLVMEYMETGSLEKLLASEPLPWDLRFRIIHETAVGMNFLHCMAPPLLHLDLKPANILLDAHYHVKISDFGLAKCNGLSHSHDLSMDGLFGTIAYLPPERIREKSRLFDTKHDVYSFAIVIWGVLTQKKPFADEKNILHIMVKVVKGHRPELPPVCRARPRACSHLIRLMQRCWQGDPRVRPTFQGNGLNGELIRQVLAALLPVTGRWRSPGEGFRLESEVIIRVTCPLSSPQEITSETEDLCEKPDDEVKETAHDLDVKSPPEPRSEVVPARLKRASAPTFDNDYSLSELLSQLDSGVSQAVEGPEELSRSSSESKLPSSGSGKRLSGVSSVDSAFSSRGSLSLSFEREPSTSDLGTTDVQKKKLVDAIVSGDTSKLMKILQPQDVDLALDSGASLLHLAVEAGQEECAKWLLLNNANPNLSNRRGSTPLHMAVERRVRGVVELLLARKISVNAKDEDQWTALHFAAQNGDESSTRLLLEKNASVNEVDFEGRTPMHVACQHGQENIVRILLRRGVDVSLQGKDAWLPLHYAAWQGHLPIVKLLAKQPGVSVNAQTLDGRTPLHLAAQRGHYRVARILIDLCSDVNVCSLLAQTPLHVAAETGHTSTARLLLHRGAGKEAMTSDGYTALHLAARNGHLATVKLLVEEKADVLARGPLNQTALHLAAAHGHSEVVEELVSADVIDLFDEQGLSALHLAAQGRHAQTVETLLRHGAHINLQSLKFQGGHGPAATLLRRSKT
Chain of BRK (Q13882 whole entry): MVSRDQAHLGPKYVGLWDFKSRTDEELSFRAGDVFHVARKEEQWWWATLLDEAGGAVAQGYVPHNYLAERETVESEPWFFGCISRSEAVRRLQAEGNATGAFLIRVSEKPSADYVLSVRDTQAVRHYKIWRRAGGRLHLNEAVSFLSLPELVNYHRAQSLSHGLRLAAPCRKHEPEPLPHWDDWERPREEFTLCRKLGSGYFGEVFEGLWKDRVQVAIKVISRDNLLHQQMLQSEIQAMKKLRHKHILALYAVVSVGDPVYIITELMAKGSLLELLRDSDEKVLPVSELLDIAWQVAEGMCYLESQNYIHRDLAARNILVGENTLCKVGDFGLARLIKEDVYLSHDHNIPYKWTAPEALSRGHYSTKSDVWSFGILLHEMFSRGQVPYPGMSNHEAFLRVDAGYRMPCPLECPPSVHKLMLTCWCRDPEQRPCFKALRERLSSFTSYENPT

Consider `CNc1ncc2cc(-c3ccc(-c4cccc(C)n4)cc3Cl)c(=O)n(C[C@H]3OC[C@H](N)CO3)c2n1` [compound 6, G-5555], for which the “Percent Control” value on PKN2 stood at 100%; on EGFR(L858R,T790M), 100%; at PAK2 it was 0%; on PHKG2 it was 100%; at ULK3, 52%; on OSR1 it was 100%. In addition, the “Percent Control” value at BRK stood at 100%; at FLT3, 100%; at BMX, 100%; at FLT3(D835H), 99%; at AXL, 96%; on PRKG1, 100%. Also, the “Percent Control” value at MEK1 is 1%; at PAK7, 82%; on MAP3K2, 67%; at PFTK1 it was 100%; at NEK7, 100%; at PRKX, 100%. The “Percent Control” value at NEK1, on ACVR1 and on RIPK4 was 100% throughout.
